US9688760B2, “Anti-leukocyte adhesion for the mitigation of potential adverse events caused by CD3-specific binding domains” (AMGEN RESEARCH (MUNICH) GMBH, priority 2013, dated 2017)
Where two headings read alike, the source gives them in different places.

Assays:
HUVEC [1] = assay: In vitro flow chamber: T cell-rolling and adhesion on HUVEC, short-term conditions; format: cell-based, human
Experimental: Human brain microvascular endothelial cells (HBMEC) (#1000, Sciencell Research Laboratories) or human umbilical vein endothelial cells (HUVEC) (#C-12200, Promocell) were used as endothelial cell-model. Cryopreserved HBMEC at passage 1 (>5×10^5 cells/ml) were first cultivated in fibronectin-coated Nunclon-treated 75 cm^2 cell culture flasks (#156499, Nunc) at 37° C. and 5% CO2 in a Heraeus Cytoperm 2 (Thermo Scientific) according to the manufacturer's instructions. Sub-cultivation of HBMEC was done with the Detach Kit (#C-41200, Promocell) consisting of HEPES-buffered balanced salt solution (#C-40000, Promocell), trypsin-EDTA solution (0.04%/0.03%) (#C-41000, Promocell) and trypsin neutralization solution (TNS, #C-41100, Promocell). Briefly, the medium was aspirated from the HBMEC-layer and cells were washed with 2 ml of HEPES-buffered balanced salt solution. Addition of 2 ml of trypsin-EDTA solution for 1-5 min at room temperature led to detachment of HBMEC from the flask bottom. Inactivation of trypsin-EDTA solution was performed by addition of 2 ml of trypsin neutralization solution to the cell suspension. Cells were centrifuged at 300 g for 4 min in a Heraeus Megafuge 40 (Thermo Scientific) and seeded at a cell density of 5×10^5 cells per gelatin-coated 75 cm^2 cell culture flask (#L7230, Biochrom). […]

HUVEC [2] = assay: In vitro flow chamber: T cell-rolling and adhesion on HUVEC, long-term conditions; format: cell-based, human; settings: 40 min
Experimental: Human brain microvascular endothelial cells (HBMEC) (#1000, Sciencell Research Laboratories) or human umbilical vein endothelial cells (HUVEC) (#C-12200, Promocell) were used as endothelial cell-model. Cryopreserved HBMEC at passage 1 (>5×10^5 cells/ml) were first cultivated in fibronectin-coated Nunclon-treated 75 cm^2 cell culture flasks (#156499, Nunc) at 37° C. and 5% CO2 in a Heraeus Cytoperm 2 (Thermo Scientific) according to the manufacturer's instructions. Sub-cultivation of HBMEC was done with the Detach Kit (#C-41200, Promocell) consisting of HEPES-buffered balanced salt solution (#C-40000, Promocell), trypsin-EDTA solution (0.04%/0.03%) (#C-41000, Promocell) and trypsin neutralization solution (TNS, #C-41100, Promocell). Briefly, the medium was aspirated from the HBMEC-layer and cells were washed with 2 ml of HEPES-buffered balanced salt solution. Addition of 2 ml of trypsin-EDTA solution for 1-5 min at room temperature led to detachment of HBMEC from the flask bottom. Inactivation of trypsin-EDTA solution was performed by addition of 2 ml of trypsin neutralization solution to the cell suspension. Cells were centrifuged at 300 g for 4 min in a Heraeus Megafuge 40 (Thermo Scientific) and seeded at a cell density of 5×10^5 cells per gelatin-coated 75 cm^2 cell culture flask (#L7230, Biochrom). HBMEC for rolling and adhesion experiments were cultivated in RPMI 1640 medium (#FG1215, Biochrom) supplemented with Nu-Serum IV (10%) (#355505, BD Biosciences), dialyzed FBS (10%) (#SZ0115, Biochrom), MEM-vitamins (1%) (#K0373, Biochrom), L-glutamine (1%) (#K0283, Biochrom), sodium-pyruvate (1%) (#L0473, Biochrom), heparin (10 U/ml) (#L6510, Biochrom), and […] cell growth factor ECGS (30 μg/ml) (#02-102, Millipore). Cultivation of HUVEC was done in endothelial cell growth medium (#C-22010, Promocell) supplemented with dialyzed FBS (10%) (#SZ0115, Biochrom) using gelatin-coated 75 cm^2 cell culture flasks. Sub-cultivation of HUVEC was performed with the Detach Kit ([…], Promocell) and cells were seeded at a cell density of 4.0-7.5×10^5 cells per 75 cm^2 cell culture flask.
Isolation of human PBMC from blood was performed by modified density gradient centrifugation as described elsewhere. Briefly, 15-20 ml of freshly drawn heparinized blood was transferred in Biocoll (#L6115, Biochrom)-containing Leukosep tubes (#227290, Greiner bio-one) and centrifuged in a Hettich Rotanta 460 RS Type 5606 (Hettich Laborapparate) at 1066 g for 15 min. After removal of the plasma fraction the PBMC containing phase was transferred in a new tube and washed twice with FACS-buffer (D-PBS #L1820, 5% FBS #SO115, Biochrom). Erythrocyte lysis was performed with lysis buffer (8.29 g/l NH4Cl, 1.00 g/l KHCO3, 0.037 g/l EDTA) for 5 min at room temperature. […]

patients [3] = assay: Clinical studies of Blinatumomab in B-NHL and B-precursor ALL; format: in vivo, human
Description: Various clinical studies evaluating the safety and efficacy of Blinatumomab have been conducted both in B-NHL (Bargou et al. Science. 2008; 321:974-7) and B-precursor ALL (Topp et al. J Clin Oncol. 2011; 29:2493-8). […] These studies established clinical proof of concept for the high therapeutic potential of the bispecific single-chain antibody format in general and of Blinatumomab in special and validated its further development in B-NHL, ALL and CLL. Throughout these studies in B-NHL and B-precursor ALL several pharmacodynamic markers were assessed. […] It was characterized by a swift redistribution after start of infusion and any dose step, i.e. a fast disappearance of circulating T cells within the first 6-12 hours and a subsequent reappearance during the following 2-7 days where high initial B cell-counts correlated with decelerated kinetics of T cell-reappearance (FIG. 1A). This course seemed to be triggered by any significant dose changes of Blinatumomab rather than absolute serum concentrations. In addition, T cell-adhesiveness was measured throughout treatment week 1 by analyzing binding of soluble ICAM-1-Fc fusion proteins to LFA-1 on T cells. […] This finding coincided with T cell-redistribution and supported the concept of Blinatumomab-induced T cell-adhesion to endothelium during redistribution.

patients [4] = settings: cited from earlier work

Blinatumomab: recombinant CD19×CD3 bispecific scFv antibody consisting of four immunoglobulin variable domains assembled into a single polypeptide chain
mean rolling velocity±SD (HUVEC [1]; T cells pre-incubated with 10 ng/ml Blinatumomab for 45 min, short-term (45 sec), 1 dyn/cm^2, control −AMG 103 283±82): 237±45 μm/sec | increase of number of T cells firmly adhering to HUVEC (HUVEC [1]; pre-incubation with 10 ng/ml Blinatumomab, short-term conditions, vs −AMG 103): 2.6 fold | increase of number of adhering T cells (HUVEC [2]; +AMG 103 10 ng/ml vs T cells alone, long-term): 2.1 fold | mean T cell-rolling velocity±SD (HUVEC [2]; non-stimulated HUVEC (minocycline experiment), +AMG 103 10 ng/ml, control −AMG 103 169): 127±41 μm/sec | time of disappearance of circulating T cells after start of infusion and any dose step (patients [3]; T cell-redistribution, irrespective of dose level): 6 to 12 h | time to return of LFA-1 binding affinity to baseline (patients [3]; after peak): ≤ 5 days | time to peak of increased LFA-1 binding affinity to ICAM-1 (patients [3]; binding of soluble ICAM-1-Fc to LFA-1 on T cells, treatment week 1): ≤ 48 h | time of reappearance of circulating T cells (patients [3]; following T cell disappearance): 2 to 7 days | effect on malignant B cells in bone marrow and liver (patients [4]; B-NHL): clearance of malignant B cells from bone marrow and liver | clinical response (patients [4]; B-NHL, dose level of 0.015 mg/m^2/day): Partial and complete responses were first observed | effect on B lymphoma cells in peripheral blood (patients [4]; B-NHL, doses as low as 0.005 mg/m^2/day civ infusion over four weeks): complete and sustained elimination of B lymphoma cells in peripheral blood | clinical response (patients [4]; B-precursor ALL, minimal residual disease and relapsed or refractory, four-week civ infusions, 0.015 mg/m^2/day): hematological complete response | clinical response (patients [4]; majority of B-NHL patients, dose level of 0.06 mg/m^2/day): substantial tumor regression
